Calls of active or inactive are those of the source. No cut-off for these calls is given here.
What was measured:
HT-29 = assay: Cytotoxicity against human HT-29 cells after 72 hrs by MTT assay; assay type: functional, cell-based; conditions: HT-29, 72 h
HeLa [1] = assay: Cytotoxicity against human HeLa cells after 72 hrs by MTT assay; assay type: functional, cell-based
Jurkat = assay: Cytotoxicity against human Jurkat cells after 72 hrs by XTT assay; assay type: functional, cell-based
[2] = (§1) Cytotoxicity against human PC3 cells after 72 hrs by MTT assay; assay type: functional, cell-based; conditions: PC-3, 72 h
PC-3 = assay: as §1; assay type: functional, cell-based
MCF7 = assay: Cytotoxicity against human MCF7 cells after 72 hrs by MTT assay; assay type: functional, cell-based
HeLa [3] = assay: Downregulation of cyclin D3 level in human HeLa cells after 48 hrs by Western blot method; assay type: functional, cell-based
[4] = (§2) Cytotoxicity against human MIAPaCa2 cells after 72 hrs by MTT assay; assay type: functional, cell-based; conditions: MIA PaCa-2, 72 h
MIA PaCa-2 = assay: as §2; assay type: functional, cell-based
A-375 = assay: Cytotoxicity against human A375 cells after 72 hrs by MTT assay; assay type: functional, cell-based
BJ = assay: Cytotoxicity against human BJ cells after 72 hrs by MTT assay; assay type: cell-based; conditions: Homo sapiens, BJ
HeLa [5] = assay: Potency index, ratio of cisplatin IC50 to compound IC50 for human HeLa cells; assay type: functional
HeLa [6] = assay: Induction of cell cycle arrest in human HeLa cells assessed as accumulation at G0/G1 phase at 1.34 uM after 24 hrs by propidium iodide staining-based flow cytometry (reference value: 51.41%); assay type: functional
HeLa [7] = assay: Induction of cell cycle arrest in human HeLa cells assessed as accumulation at G0/G1 phase at 2.68 uM after 24 hrs by propidium iodide staining-based flow cytometry (reference value: 51.41%); assay type: functional
HeLa [8] = assay: Induction of cell cycle arrest in human HeLa cells assessed as accumulation at S phase at 1.34 uM after 24 hrs by propidium iodide staining-based flow cytometry (reference value: 35.72%); assay type: functional
HeLa [9] = assay: Induction of cell cycle arrest in human HeLa cells assessed as accumulation at S phase at 2.68 uM after 24 hrs by propidium iodide staining-based flow cytometry (reference value: 35.72%); assay type: functional
HeLa [10] = assay: Induction of cell cycle arrest in human HeLa cells assessed as accumulation at G0/G1 phase at 1.34 uM after 48 hrs by propidium iodide staining-based flow cytometry (reference value: 54.05%); assay type: functional
HeLa [11] = assay: Induction of cell cycle arrest in human HeLa cells assessed as accumulation at subG0/G1 phase at 2.68 uM after 48 hrs by propidium iodide staining-based flow cytometry; assay type: functional
HeLa [12] = assay: Induction of apoptosis in human HeLa cells assessed as dead cells at 0.67 uM after 48 hrs by annexin V-FITC/propidium iodide staining-based flow cytometry ( Rvb = 0.067%); assay type: functional
HeLa [13] = assay: Induction of apoptosis in human HeLa cells assessed as late apoptotic cells at 0.67 uM after 48 hrs by annexin V-FITC/propidium iodide staining-based flow cytometry ( Rvb = 1.28%); assay type: functional
HeLa [14] = assay: Induction of apoptosis in human HeLa cells assessed as viable cells at 0.67 uM after 48 hrs by annexin V-FITC/propidium iodide staining-based flow cytometry ( Rvb = 95.4%); assay type: functional; conditions: read-out: Activity
HeLa [15] = assay: Induction of apoptosis in human HeLa cells assessed as early apoptotic cells at 0.67 uM after 48 hrs by annexin V-FITC/propidium iodide staining-based flow cytometry ( Rvb = 3.24%); assay type: functional
HeLa [16] = assay: Induction of apoptosis in human HeLa cells assessed as dead cells at 1.34 uM after 48 hrs by annexin V-FITC/propidium iodide staining-based flow cytometry ( Rvb = 0.067%); assay type: functional
HeLa [17] = assay: Induction of apoptosis in human HeLa cells assessed as late apoptotic cells at 1.34 uM after 48 hrs by annexin V-FITC/propidium iodide staining-based flow cytometry ( Rvb = 1.28%); assay type: functional
HeLa [18] = assay: Induction of apoptosis in human HeLa cells assessed as viable cells at 1.34 uM after 48 hrs by annexin V-FITC/propidium iodide staining-based flow cytometry ( Rvb = 95.4%); assay type: functional; conditions: read-out: Activity
HeLa [19] = assay: Induction of apoptosis in human HeLa cells assessed as early apoptotic cells at 1.34 uM after 48 hrs by annexin V-FITC/propidium iodide staining-based flow cytometry ( Rvb = 3.24%); assay type: functional
HeLa [20] = assay: Induction of apoptosis in human HeLa cells assessed as dead cells at 2.68 uM after 48 hrs by annexin V-FITC/propidium iodide staining-based flow cytometry ( Rvb = 0.067%); assay type: functional
HeLa [21] = assay: Induction of apoptosis in human HeLa cells assessed as late apoptotic cells at 2.68 uM after 48 hrs by annexin V-FITC/propidium iodide staining-based flow cytometry ( Rvb = 1.28%); assay type: functional
HeLa [22] = assay: Induction of apoptosis in human HeLa cells assessed as viable cells at 2.68 uM after 48 hrs by annexin V-FITC/propidium iodide staining-based flow cytometry ( Rvb = 95.4%); assay type: functional; conditions: read-out: Activity
HeLa [23] = assay: Induction of apoptosis in human HeLa cells assessed as early apoptotic cells at 2.68 uM after 48 hrs by annexin V-FITC/propidium iodide staining-based flow cytometry ( Rvb = 3.24%); assay type: functional
HeLa [24] = assay: Induction of apoptosis in human HeLa cells assessed as cell shrinkage at 0.67 to 1.34 uM after 48 hrs by Hoechst 33258 staining-based fluorescence microscopy; assay type: functional
HeLa [25] = assay: Induction of apoptosis in human HeLa cells assessed as chromatin condensation at 0.67 to 1.34 uM after 48 hrs by Hoechst 33258 staining-based fluorescence microscopy; assay type: functional, cell-based
HeLa [26] = assay: Induction of apoptosis in human HeLa cells assessed as reduction in adherent cells at 0.67 to 1.34 uM after 48 hrs by Hoechst 33258 staining-based fluorescence microscopy; assay type: functional, cell-based
HeLa [27] = assay: Induction of apoptosis in human HeLa cells assessed as rupture of cell membrane at 2.68 uM after 48 hrs by Hoechst 33258 staining-based fluorescence microscopy; assay type: functional
HeLa [28] = assay: Induction of apoptosis in human HeLa cells assessed as nuclear fragmentation at 2.68 uM after 48 hrs by Hoechst 33258 staining-based fluorescence microscopy; assay type: functional, cell-based
HeLa [29] = assay: Upregulation of p21 cip1/waf1 level in human HeLa cells at 1.34 to 2.68 uM after 48 hrs by Western blot method; assay type: functional, cell-based
HeLa [30] = assay: Upregulation of p27 kip1 level in human HeLa cells at 1.34 to 2.68 uM after 48 hrs by Western blot method; assay type: functional, cell-based
HeLa [31] = assay: Downregulation of cyclin E level in human HeLa cells at 0.67 to 2.68 uM after 48 hrs by Western blot method; assay type: functional, cell-based
HeLa [32] = assay: Induction of apoptosis in human HeLa cells assessed as increase in cleaved caspase-3 level at 2.68 uM after 48 hrs by Western blot method; assay type: functional, cell-based
HeLa [33] = assay: Induction of apoptosis in human HeLa cells assessed as increase in cleaved caspase-8 level at 2.68 uM after 48 hrs by Western blot method; assay type: functional, cell-based
HeLa [34] = assay: Induction of apoptosis in human HeLa cells assessed as increase in cleaved PARP level at 2.68 uM after 48 hrs by Western blot method; assay type: functional, cell-based
HeLa [35] = assay: Induction of apoptosis in human HeLa cells assessed as increase in t-Bid level at 2.68 uM after 48 hrs by Western blot method; assay type: functional, cell-based
HeLa [36] = assay: Induction of apoptosis in human HeLa cells assessed as upregulation of Bax level after 48 hrs by Western blot method; assay type: functional, cell-based
HeLa [37] = assay: Induction of apoptosis in human HeLa cells assessed as downregulation of Bcl2 level after 48 hrs by Western blot method; assay type: functional, cell-based
HeLa [38] = assay: Induction of apoptosis in human HeLa cells assessed as increase in Bax to Bcl2 ratio at 0.67 to 2.68 uM after 48 hrs by Western blot method; assay type: functional, cell-based
HeLa [39] = assay: Potency index, ratio of asiatic acid IC50 to compound IC50 for human HeLa cells; assay type: functional

## C[C@H]1[C@H](C)CC[C@@]23CC[C@]4(C)[C@](OC2=O)([C@H](F)C[C@@H]2[C@@]5(C)C(C=O)=C[C@@](C)(COC(=O)/C=C/c6ccccc6)[C@@H]5CC[C@]24C)[C@H]13
HT-29
  IC50: 710 nM
HeLa [1]
  IC50: 670 nM
Jurkat
  Activity: Dose-dependent effect
  IC50: 680 nM
[2]
  IC50: 740 nM
PC-3
  Activity: Dose-dependent effect
MCF7
  Activity: Dose-dependent effect
MCF7; MCF7, 72 h
  IC50: 840 nM
HeLa [3]
  Activity: Dose-dependent effect
[4]
  IC50: 1130 nM
MIA PaCa-2
  Activity: Dose-dependent effect
A-375
  Activity: Dose-dependent effect
A-375; A-375, 72 h
  IC50: 720 nM
BJ
  IC50: 1940 nM
HeLa [5]
  Ratio IC50: 3.5
HeLa [6]
  Activity: 67.26%
HeLa [7]
  Activity: 72.72%
HeLa [8]
  Activity: 22.55%
HeLa [9]
  Activity: 11.05%
HeLa [10]
  Activity: 76.03%
HeLa [11]
  Activity: 11.39%
HeLa [12]
  Activity: 0.193%
HeLa [13]
  Activity: 1.23%
HeLa [14]
  viability at 0.67 µM: 94.7%
HeLa [15]
  Activity: 3.65%
HeLa [16]
  Activity: 0.172%
HeLa [17]
  Activity: 2.6%
HeLa [18]
  viability at 1.34 µM: 92%
HeLa [19]
  Activity: 5.25%
HeLa [20]
  Activity: 2.86%
HeLa [21]
  Activity: 22.6%
HeLa [22]
  viability at 2.68 µM: 62.4%
HeLa [23]
  Activity: 12.1%
HeLa [24]
  Activity: Active
HeLa [25]
  Activity: Active
HeLa [26]
  Activity: Active
HeLa [27]
  Activity: Active
HeLa [28]
  Activity: Active
HeLa [29]
  Activity: Active
HeLa [30]
  Activity: Active
HeLa [31]
  Activity: Active
HeLa [32]
  Activity: Active
HeLa [33]
  Activity: Active
HeLa [34]
  Activity: Active
HeLa [35]
  Activity: Active
HeLa [36]
  Activity: Dose-dependent effect
HeLa [37]
  Activity: Dose-dependent effect
HeLa [38]
  Activity: Active
HeLa [39]
  Ratio IC50: 79

Source: ChEMBL document CHEMBL3784916, “Synthesis and anticancer activity of novel fluorinated asiatic acid derivatives” (Eur J Med Chem, 2016)
